Reference: patent US20110076293A1, “TRIPTOLIDE DERIVATIVES FOR MODULATION OF APOPTOSIS AND IMMUNOSUPPRESSION” (priority 2002, published 2011)
Like-named read-outs stand apart in the source and are kept apart here.

Assays:
[1] = system: IL-2 production in Jurkat human T lymphocyte cells; assay: IL-2 production assay for activity of compounds incubated with human serum; settings: for bioactivity in IL-2 inhibition assays (in words): FIGS. 4-5; for IC50: Homo sapiens, Jurkat, 48 h, IL-2 production in Jurkat cells after incubation with pooled human serum for 48 hours at 37° C.; for Conversion (%): percent of the IC50 value produced by triptolide (PG490) in the same experiment, human serum 48 hours
Method: Several compounds of formula I were analyzed for their capacity to inhibit IL-2 production in Jurkat human T lymphocyte cells, after incubation with pooled human serum for 48 hours at 37° C. (see Example 20). An ester prodrug, triptolide-14-succinate, designated PG490-88, was included for comparison.
The IC50 values (column 1) are calculated directly from the data in each experiment. The % conversion values (column 2) are calculated as the percent of the IC50 value produced by triptolide, designated PG490, incubated in the same plasma (i.e. in the same experiment).
A. IL-2 production assay for activity of compounds incubated with human serum. Test samples were diluted to 1 mM in complete tissue culture medium. […] Cells from an exponentially expanding culture of the Jurkat human T lymphocyte cell line (#TIB-152 obtained from American Type Culture Collection, Manassas, Va.) were harvested, washed once by centrifugation and dilution in complete tissue culture medium, and diluted to a concentration of 2×10^6 cells/ml. A volume of 50 μl of Jurkat cells (1×10^5 cells) was added to wells containing 100 μl of the diluted compounds, 50 μl of PMA (10 ng/ml) was added to each well, and the plates were incubated at 37° C. in a 5% CO2 incubator. After 24 hours, the plates were centrifuged to pellet the cells, 150 μl of supernatant was removed from each well, and the samples were stored at −20° C. The stored supernatants were analyzed for human IL-2 concentration using the Luminex 100 (Luminex Corporation, Austin, Tex.), Luminex microspheres coupled with anti-IL-2 capture antibody, and fluorochrome-coupled anti-IL-2 detection antibody. The data were expressed as ng/ml of IL-2.
(§1) B. Comparison of bioactivities after incubation of compounds in human serum. The data were plotted as the concentration of compound incubated in serum versus IL-2 concentration. The concentration of compound inducing a 50% decrease in the IL-2 concentration (IC50) was calculated from these dose response curves. […] This percentage conversion was used to compare the bioactivity of various compounds after incubation in human serum.

[2] = system: Jurkat human T lymphocyte cell line; assay: Apoptosis assay (Annexin V) of compounds incubated with human serum; settings: for EC50: Homo sapiens, Jurkat
Method: (§2) Compounds of formula I, as shown in Table 1 above and in the Examples, were assayed for their capacity to induce apoptosis in cells from the Jurkat human T lymphocyte cell line, after incubation with pooled human serum for varying periods of time at 37° C. (see Example 19). An ester prodrug, triptolide-14-succinate, designated PG490-88, was included for comparison. The extent of conversion to triptolide after such incubation was also independently determined by HPLC analysis.
The ED50 values (column 3) are calculated directly from the data in each experiment, and the % conversion values (column 4) are calculated as percent of the ED50 value produced by triptolide, designated PG490, incubated in the same plasma (i.e. in the same experiment).
A. Incubation of compounds with human serum. Pooled human serum was stored in aliquots at −80° C. Test compounds were added at 20 mM to thawed human serum in 1.5 ml microfuge tubes and incubated at 37° C. in a water bath for varying periods of time. The test samples were placed on ice until dilution for the bioassay. Controls consisted of the compounds incubated in complete tissue culture medium (RPMI 1640 medium plus 5% heat-inactivated fetal calf serum, 1% HEPES, 1% pen/strep, 1% glutamine) rather than human serum.
B. Apoptosis assay of compounds incubated with human serum. Test samples were diluted to 1 mM in complete tissue culture medium. Aliquots were placed in microculture plates and serial dilutions were prepared so that the final concentration would encompass the range of 1 to 10,000 nM with half-log increments. Cells from an exponentially expanding culture of the Jurkat human T lymphocyte cell line (#TIB-152 obtained from American Type Culture Collection, Manassas, Va.) were harvested, washed once by centrifugation and dilution in complete tissue culture medium, and diluted to a concentration of 1×10^6 cells/ml. A volume of 100 μl of Jurkat cells (1×10^5 cells) was added to wells containing 100 μl of the diluted compounds, and the plates were incubated at 37° C. in a 5% CO2 incubator. After 24 hours, the plates were centrifuged to pellet the cells, and the cells were washed twice with 2% heat-inactivated fetal calf serum in PBS. To each well, 500 ul of binding buffer was added according to the Annexin V assay procedure (BioVision, Inc., Mountain View, Calif.). Next, 5 μl of the fluorescein isothiocyanate (FITC) conjugate of Annexin V (BioVision, Inc.) was added to each well, followed by 5 minutes of incubation in the dark. In some assays, propidium iodide (BioVision, Inc.) was added at this stage to check for necrotic cells. The contents of the wells were individually transferred into test tubes, and apoptosis was analyzed using a FACSCalibur flow cytometer (BD Immunocytometry Systems, San Jose, Calif.). Cells positive for Annexin V binding were considered to be apoptotic, and the data were calculated as percent apoptotic cells.
as §1, with “C.” for “B.”, “percent apoptotic cells.” for “IL-2 concentration.”, “inducing” for “inducing a”, “apoptosis (ED50)” for “decrease in the IL-2 concentration (IC50)”

in vitro = settings: human, plasma
Method: as §2
Prodrug conversions to triptolide as determined independently by HPLC are given in […].

[3] = 1 h, read-out: ED50 (nM) in apoptosis assay after incubation with serum, incubation time in human serum 1 hour, 37° C.
[4] = 48 h, read-out: ED50 (nM) in apoptosis assay after incubation with serum, incubation time in human serum 48 hours, 37° C.
[5] = incubation time in human serum 1 hour
[6] = incubation time in human serum 48 hours

With CC(C)[C@]12O[C@H]1[C@@H]1O[C@]13[C@]1(O[C@H]1C[C@H]1C4=C(CC[C@@]13C)C(=O)OC4)[C@@H]2OC(=O)N1CCN(C)CC1 [PG672, N-methylpiperazinecarbonyl (carbamate)] the “bioactivity in IL-2 inhibition assays (in words)” value [1] was “some level of bioactivity”, the “IL-2 pg/mL at given concentration (nM)” value ([1]; Table 8, Jurkat cells, 0.0001 nM) was 103.3 pg/mL and the “IL-2 pg/mL at given concentration (nM)” value ([1]; Table 8, Jurkat cells, 0.001 nM) was 90.8 pg/mL. For the same compound, the “IL-2 pg/mL at given concentration (nM)” value ([1]; Table 8, Jurkat cells, 0.01 nM) was 99.1 pg/mL, the “IL-2 pg/mL at given concentration (nM)” value ([1]; Table 8, Jurkat cells, 0.1 nM) was 117.1 pg/mL and the “IL-2 pg/mL at given concentration (nM)” value ([1]; Table 8, Jurkat cells, 1 nM) was 91.4 pg/mL. The “IL-2 pg/mL at given concentration (nM)” value ([1]; Table 8, Jurkat cells, 10 nM) was 99.1 pg/mL, the “IL-2 pg/mL at given concentration (nM)” value ([1]; Table 8, Jurkat cells, 100 nM) was 64.6 pg/mL and the “IL-2 pg/mL at given concentration (nM)” value ([1]; Table 8, Jurkat cells, 1000 nM) was 26.8 pg/mL. The “IL-2 pg/mL at given concentration (nM)” value ([1]; Table 8, Jurkat cells, 10000 nM) was 8.7 pg/mL, the “conversion in human serum (in words)” value [2] was “less readily converted” and the “% apoptotic cells at given concentration (nM)” value (from here on “% apoptotic cells”) ([2]; Table 4, medium, 10000 nM) was 48.6%. The “% apoptotic cells” value ([2]; Table 4, serum, 0 hr, 10000 nM) was 47.6%, the “% apoptotic cells” value ([2]; Table 4, serum, 48 hr, 0.03 nM) was 42.7% and the “% apoptotic cells” value ([2]; Table 4, serum, 48 hr, 0.1 nM) was 45.2%. The “% apoptotic cells” value ([2]; Table 4, serum, 48 hr, 0.3 nM) was 45.4%, the “% apoptotic cells” value ([2]; Table 4, serum, 48 hr, 1 nM) was 45.9% and the “% apoptotic cells” value ([2]; Table 4, serum, 48 hr, 3 nM) was 45.3%. For the same compound, the “% apoptotic cells” value ([2]; Table 4, serum, 48 hr, 10 nM) was 46.0%, the “% apoptotic cells” value ([2]; Table 4, serum, 48 hr, 30 nM) was 46.8% and the “% apoptotic cells” value ([2]; Table 4, serum, 48 hr, 100 nM) was 46.6%. For the same compound, the “% apoptotic cells” value ([2]; Table 4, serum, 48 hr, 300 nM) was 42.3%, the “% apoptotic cells” value ([2]; Table 4, serum, 48 hr, 1000 nM) was 43.7% and the “% apoptotic cells” value ([2]; Table 4, serum, 48 hr, 3000 nM) was 44.9%. The “% apoptotic cells” value ([2]; Table 4, serum, 48 hr, 10000 nM) was 63.2% and the “apoptotic activity (in words)” value ([2]; after 48 hr. incubation in human serum) was “activity at high concentrations”.
With CCOC(=O)O[C@@H]1[C@@]2(C(C)C)O[C@H]2[C@@H]2O[C@]23[C@]12O[C@H]2C[C@H]1C2=C(CC[C@@]13C)C(=O)OC2 [PG674, Triptolide 14-Ethyl Carbonate] the EC50 ([2]; 0.5 h, read-out: ED50 (nM) in apoptosis assay after incubation with serum, incubation time in human serum 0.5 hours, 37° C.) was 27 nM, the EC50 [2, 3] was 55 nM and the EC50 ([2]; 24 h, read-out: ED50 (nM) in apoptosis assay after incubation with serum, incubation time in human serum 24 hours, 37° C.) was 60 nM. The EC50 [2, 4] was 65 nM, the “Conversion, as relative ED50 compared to triptolide (%)” value (shortened to “Conversion, as relative ED50 … (%)”) ([2]; incubation time in human serum 0.5 hours) was 188% and the “Conversion, as relative ED50 … (%)” value [2, 5] was 98%. For the same compound, the “Conversion, as relative ED50 … (%)” value ([2]; incubation time in human serum 24 hours) was 97%, the “Conversion, as relative ED50 … (%)” value [2, 6] was 100% and the half-life (in vitro) was 12 min.
With CC(C)[C@]12O[C@H]1[C@@H]1O[C@]13[C@]1(O[C@H]1C[C@H]1C4=C(CC[C@@]13C)C(=O)OC4)[C@@H]2OC(=O)O[C@H](C)C(=O)OC(C)(C)C [PG681, Triptolide 14-(R)-α-Methyl-tert-butoxycarbonylmethyl Carbonate] the IC50 [1] was 3 nM, the “Conversion (%)” value [1] was 55% and the EC50 [2, 3] was 684 nM. The EC50 [2, 4] was 139 nM, the “Conversion, as relative ED50 … (%)” value [2, 5] was 7% and the “Conversion, as relative ED50 … (%)” value [2, 6] was 40%.
In the case of CC(C)[C@]12O[C@H]1[C@@H]1O[C@]13[C@]1(O[C@H]1C[C@H]1C4=C(CC[C@@]13C)C(=O)OC4)[C@@H]2OC(=O)NCCN(C)C [PG688, Triptolide 14-Dimethylaminoethyl Carbamate], the “bioactivity in IL-2 inhibition assays (in words)” value [1] is reported as “some level of bioactivity”, the “IL-2 pg/mL at given concentration (nM)” value ([1]; Table 7, Jurkat cells (48 hrs), 0.001 nM) is reported as 883.9 pg/mL and the “IL-2 pg/mL at given concentration (nM)” value ([1]; Table 7, Jurkat cells (48 hrs), 0.01 nM) is reported as 754.1 pg/mL. The “IL-2 pg/mL at given concentration (nM)” value ([1]; Table 7, Jurkat cells (48 hrs), 0.1 nM) was 810.4 pg/mL, the “IL-2 pg/mL at given concentration (nM)” value ([1]; Table 7, Jurkat cells (48 hrs), 1 nM) was 900.4 pg/mL and the “IL-2 pg/mL at given concentration (nM)” value ([1]; Table 7, Jurkat cells (48 hrs), 10 nM) was 796.3 pg/mL. The “IL-2 pg/mL at given concentration (nM)” value ([1]; Table 7, Jurkat cells (48 hrs), 100 nM) was 873.3 pg/mL, the “IL-2 pg/mL at given concentration (nM)” value ([1]; Table 7, Jurkat cells (48 hrs), 1000 nM) was 759.9 pg/mL and the “IL-2 pg/mL at given concentration (nM)” value ([1]; Table 7, Jurkat cells (48 hrs), 10000 nM) was 459.8 pg/mL. For the same compound, the “conversion in human serum (in words)” value [2] was “less readily converted”, the “% apoptotic cells” value ([2]; Table 5, human serum (48 hrs), 1 nM) was 9.2% and the “% apoptotic cells” value ([2]; Table 5, human serum (48 hrs), 3 nM) was 9.8%. For the same compound, the “% apoptotic cells” value ([2]; Table 5, human serum (48 hrs), 10 nM) was 9.4%, the “% apoptotic cells” value ([2]; Table 5, human serum (48 hrs), 30 nM) was 9.5% and the “% apoptotic cells” value ([2]; Table 5, human serum (48 hrs), 100 nM) was 9.4%. The “% apoptotic cells” value ([2]; Table 5, human serum (48 hrs), 300 nM) was 8.7%, the “% apoptotic cells” value ([2]; Table 5, human serum (48 hrs), 1000 nM) was 8.6% and the “% apoptotic cells” value ([2]; Table 5, human serum (48 hrs), 3000 nM) was 8.2%. The “% apoptotic cells” value ([2]; Table 5, medium, 1 nM) was 13.0%, the “% apoptotic cells” value ([2]; Table 5, medium, 3 nM) was 14.0% and the “% apoptotic cells” value ([2]; Table 5, medium, 10 nM) was 12.1%. For the same compound, the “% apoptotic cells” value ([2]; Table 5, medium, 30 nM) was 10.9%, the “% apoptotic cells” value ([2]; Table 5, medium, 100 nM) was 11.2% and the “% apoptotic cells” value ([2]; Table 5, medium, 300 nM) was 11.3%. The “% apoptotic cells” value ([2]; Table 5, medium, 1000 nM) was 12.1% and the “% apoptotic cells” value ([2]; Table 5, medium, 3000 nM) was 10.9%.
With CC(C)[C@]12O[C@H]1[C@@H]1O[C@]13[C@]1(O[C@H]1C[C@H]1C4=C(CC[C@@]13C)C(=O)OC4)[C@@H]2OC(=O)OC(C)(C)C [PG695, Triptolide 14-tert-Butyl Carbonate] the IC50 [1] was 100 nM, the “Conversion (%)” value [1] was 2% and the EC50 [2, 4] was 59 nM. For the same compound, the “Conversion, as relative ED50 … (%)” value [2, 6] was 100%.
